T/C data for 18 compounds are collected here from PubChem BioAssay AID332 (DTP/NCI, 2004).

The test system of this assay is mice, ADJ-PC-20 plasma cell tumor sc, T/C %. The experiment in a line: NCI In Vivo Anticancer Drug Screen. Data for tumor model ADJ-PC-20 Plasma Cell (subcutaneous) in unknown mice. The following applies: endpoint: mean tumor weight, higher = larger tumour. The method, then:
The antitumor activity of compounds was measured in mice bearing transplantable tumors. Survival or tumor size were measured and the results are expressed as the measurement made in the treated group (T) divided by the measurement made in the vehicle treated control group (C). The tumor model used in this assay is ADJ-PC-20 Plasma Cell (subcutaneous) in unknown mice

Setting [1] is: dose: 12.5 mg/kg/injection, schedule: Q01DX010 (ip), vehicle: carboxymethylcellulose (CMC).
Setting [2] is: dose: 25.0 mg/kg/injection, schedule: Q01DX010 (ip), vehicle: carboxymethylcellulose (CMC).
The mark [3] stands for this setting: dose: 50.0 mg/kg/injection, schedule: Q01DX010 (ip), vehicle: carboxymethylcellulose (CMC).
[4] abbreviates: dose: 100.0 mg/kg/injection, schedule: Q01DX010 (ip), vehicle: carboxymethylcellulose (CMC).
Setting [5] is: dose: 62.5 mg/kg/injection, schedule: Q01DX010 (ip), vehicle: carboxymethylcellulose (CMC).
Setting [6] is: dose: 250.0 mg/kg/injection, schedule: Q01DX010 (ip), vehicle: carboxymethylcellulose (CMC).
[7] abbreviates: dose: 125.0 mg/kg/injection, schedule: Q01DX010 (ip), vehicle: carboxymethylcellulose (CMC).

The structures appear in SMILES notation. “And” between values parts separate entries of the source, which are not always exact repeats. Identical values can stand only once. Inconclusive results are not listed.

As to `Cn1c(N)nc2nc[nH]c2c1=S`, the T/C was 118 % of control (dose: 6.3 mg/kg/injection, schedule: Q01DX010 (ip), vehicle: carboxymethylcellulose (CMC)); 105 % of control under setting [1]; 116 % of control under setting [2]; 98 % of control under setting [3]; 76 % of control under setting [4].

Turning to `CN(C)c1nc(N(C)C)nc(N(C)C)n1`, the T/C is, setting by setting: under setting [5], 97 % of control; under setting [6], 58 % of control.

With `C[C@]12C=CC(=O)C=C1CC[C@@H]1[C@@H]2C(=O)C[C@@]2(C)[C@H]1CC[C@]2(O)C(=O)CO`, the T/C (dose: 6.3 mg/kg/injection, schedule: Q01DX010 (sc), vehicle: steriod suspending solution) was 107 % of control; the T/C (dose: 12.5 mg/kg/injection, schedule: Q01DX010 (sc), vehicle: steriod suspending solution) is 51 % of control; the T/C (dose: 100.0 mg/kg/injection, schedule: Q01DX010 (sc), vehicle: steriod suspending solution) is 14 % of control.

For the compound `O=c1[nH]c(=O)n(C2CC(O)C(CO)O2)cc1I` (stereo not drawn), the T/C reads like this: (dose: 31.25 mg/kg/injection, schedule: Q01DX010 (ip), vehicle: carboxymethylcellulose (CMC)) 49 % of control; under setting [5], 77 % of control; under setting [7], 32 % of control; under setting [6], 11 % of control.

As for `O=c1[nH]c(=O)n(C2CC(O)C(CO)O2)cc1F` (stereo not drawn), the T/C is, setting by setting: under setting [2], 67 % of control; under setting [3], 21 % of control; under setting [4], 36 % of control.

Turning to `O=C(Nc1ccc(C2=NCCN2)cc1)c1ccc(C(=O)Nc2ccc(C3=NCCN3)cc2)c(Cl)c1`, the T/C (dose: 1.62 mg/kg/injection, schedule: Q01DX010 (ip), vehicle: water) was 108 % of control; the T/C (dose: 3.12 mg/kg/injection, schedule: Q01DX010 (ip), vehicle: water) is 152 % of control; the T/C (dose: 6.25 mg/kg/injection, schedule: Q01DX010 (ip), vehicle: water) is 94 % of control; the T/C (dose: 6.3 mg/kg/injection, schedule: Q01DX010 (ip), vehicle: water) was 64 % of control; the T/C (dose: 7.5 mg/kg/injection, schedule: Q01DX010 (ip), vehicle: water) was 81 % of control and 83 % of control; the T/C (dose: 12.5 mg/kg/injection, schedule: Q01DX010 (ip), vehicle: water) was 121 % of control. For the same compound, the T/C (dose: 30.0 mg/kg/injection, schedule: Q01DX010 (ip), vehicle: water) is 55 % of control and 66 % of control.

For the compound `CCOC(=O)NP(=O)(N1CC1(C)C)N1CC1(C)C` (stereo not drawn), the T/C under setting [7] is 68 % of control and the T/C under setting [6] was 20 % of control.

`N=C(N)SCc1c2ccccc2c(CSC(=N)N)c2ccccc12`: the T/C (dose: 10.0 mg/kg/injection, schedule: Q01DX010 (ip), vehicle: carboxymethylcellulose (CMC)) was 119 % of control and the T/C (dose: 20.0 mg/kg/injection, schedule: Q01DX010 (ip), vehicle: carboxymethylcellulose (CMC)) was 55 % of control.

On to `Clc1ccc(C(c2ccccc2Cl)C(Cl)Cl)cc1` (stereo not drawn), for which the T/C (dose: 25.0 mg/kg/injection, schedule: Q01DX010 (sc), vehicle: steriod suspending solution) is 66 % of control; the T/C (dose: 50.0 mg/kg/injection, schedule: Q01DX010 (sc), vehicle: steriod suspending solution) was 60 % of control; the T/C (dose: 200.0 mg/kg/injection, schedule: Q01DX010 (sc), vehicle: steriod suspending solution) was 86 % of control and 100 % of control and 109 % of control; the T/C (dose: 400.0 mg/kg/injection, schedule: Q01DX010 (sc), vehicle: steriod suspending solution) was 92 % of control; the T/C (dose: 800.0 mg/kg/injection, schedule: Q01DX010 (sc), vehicle: steriod suspending solution) is 73 % of control.

As to `CS(=O)(=O)OCCCl`, the T/C is, setting by setting: under setting [1], 120 % of control; under setting [2], 114 % of control; under setting [3], 76 % of control; under setting [4], 124 % of control.

Turning to `C[C@]12CC[C@H](OC3OC(CO)C(O)C(O)C3O)C[C@H]1CC[C@@H]1[C@@H]2CC[C@]2(C)[C@@H](C3=CCOC3=O)CC[C@]12O` (stereo partly drawn), the T/C reads like this: (dose: 63.0 micrograms/kg/injection, schedule: Q01DX010 (ip), vehicle: saline) 99 % of control; (dose: 125.0 micrograms/kg/injection, schedule: Q01DX010 (ip), vehicle: saline) 93 % of control; (dose: 250.0 micrograms/kg/injection, schedule: Q01DX010 (ip), vehicle: saline) 95 % of control.

Consider `C[C@]12CCC(=O)C[C@H]1CC[C@@H]1[C@@H]2CC[C@@]2(C)[C@H]1CC[C@]2(C)O`, for which the T/C reads like this: (dose: 500.0 mg/kg/injection, schedule: Q01DX010 (sc), vehicle: steriod suspending solution) 105 % of control and 119 % of control; (dose: 1000.0 mg/kg/injection, schedule: Q01DX010 (sc), vehicle: steriod suspending solution) 96 % of control.

As for `C[C@@H]1C[C@H]2CC[C@H](O2)[C@H](C)C(=O)O[C@@H](C)C[C@@H]2CC[C@@H](O2)[C@@H](C)C(=O)O[C@H](C)C[C@H]2CC[C@H](O2)[C@H](C)C(=O)O[C@@H](C)C[C@@H]2CC[C@@H](O2)[C@@H](C)C(=O)O1`, the T/C was 110 % of control under setting [3]; 120 % of control under setting [4]; 99 % of control (dose: 200.0 mg/kg/injection, schedule: Q01DX010 (ip), vehicle: carboxymethylcellulose (CMC)).

Turning to `CN(Cc1cnc2nc(N)nc(N)c2n1)c1c(Cl)cc(C(=O)NC(CCC(=O)O)C(=O)O)cc1Cl` (stereo not drawn), the T/C runs as follows: (dose: 6.25 mg/kg/injection, schedule: Q01DX010 (ip), vehicle: carboxymethylcellulose (CMC)) 93 % of control; under setting [1], 112 % of control; under setting [2], 79 % of control and 97 % of control; under setting [3], 71 % of control.

For the compound `CC[C@H](c1ccc(O)cc1)[C@@H](CC)c1ccc(O)cc1`, the T/C reads like this: (dose: 31.25 mg/kg/injection, schedule: Q01DX010 (sc), vehicle: steriod suspending solution) 185 % of control; (dose: 62.5 mg/kg/injection, schedule: Q01DX010 (sc), vehicle: steriod suspending solution) 180 % of control.

Consider `O=C(Nc1ccc(C2=NCCN2)cc1)c1cccc(C(=O)Nc2ccc(C3=NCCN3)cc2)c1`, for which the T/C is, setting by setting: (dose: 9.4 mg/kg/injection, schedule: Q01DX010 (ip), vehicle: carboxymethylcellulose (CMC)) 154 % of control; (dose: 18.8 mg/kg/injection, schedule: Q01DX010 (ip), vehicle: carboxymethylcellulose (CMC)) 214 % of control; (dose: 37.5 mg/kg/injection, schedule: Q01DX010 (ip), vehicle: carboxymethylcellulose (CMC)) 187 % of control.

Consider `N#Cc1cn(C2OC(CO)C(O)C2O)c2ncnc(N)c12` (stereo not drawn), for which the T/C (dose: 0.12 mg/kg/injection, schedule: Q01DX010 (ip), vehicle: carboxymethylcellulose (CMC)) is 47 % of control.

In the case of `O=c1[nH]cc(F)c(=O)[nH]1`, the T/C (dose: 1.56 mg/kg/injection, schedule: Q01DX010 (ip), vehicle: saline) is 173 % of control; the T/C (dose: 6.25 mg/kg/injection, schedule: Q01DX010 (ip), vehicle: saline) is 35 % of control; the T/C (dose: 12.5 mg/kg/injection, schedule: Q01DX010 (ip), vehicle: saline) is 20 % of control.
